# EP1412028B1, “TETRAHYDROINDOLONE DERIVATIVES LINKED TO ARYLPIPERAZINES” (Spectrum Pharmaceuticals, Inc., priority 2001, dated 2003)
# Like-named read-outs stand apart in the source and are kept apart here.
# Key:
# Caco-2 cells [1] = assay: Membrane permeability (Papp) across Caco-2 cell monolayers; conditions: for RATIO Papp^B-A/ Papp^A-B / Papp AP- to- BL / Papp BL- to- AP: Caco-2 monolayer; for Papp AP- to- BL: apical to basolateral direction; for Papp BL- to- AP: basolateral to apical direction
# mice = assay: Conditioned avoidance responding (CAR, active avoidance); assay type: in vivo; conditions: for ED50: Mus musculus
# Procedure: Training: Consists of 20 trials with variable inter-trial intervals (Trained to 80% Avoidance Criteria). After a one-minute acclimation period, the house light and an acoustic 90dB tone (conditioned stimuli) are presented. A response (crossing to dark compartment) within 5 seconds ends the trial and trial is recorded as avoidance response (CAR). […] To avoid shock, animals learn to move from the lighted side of the chamber to the dark side when the cue is presented (avoidance) or moved when the shock is administered (escape).Testing: Vehicle or test compounds are administered S.C. 20 minutes before the test session. (Checking for disruption of cognition and attention) Table 3. Conditioned Avoidance Responding
# male C-57 mice = assay: PCP disruption of pre-pulse inhibition (PPI) of the acoustic startle response; assay type: in vivo; conditions: for ED50: Mus musculus; for PCP Disruption of Pre-pulse Inhibition, reversal: mice, PCP 5mg/kg IP, route not given, NEO compounds as oxalate
# Procedure: The non-competitive NMDA receptor antagonist phencyclidine (PCP) reduces pre-pulse inhibition (PPI) of the acoustic startle response in rodents. […] For testing of PPI, male C-57 mice were assigned to five dose groups of eight animals per group, and vehicle or test compound were administered orally (PO) or subcutaneously (SC) 20 minutes prior to intraperitoneal (IP) administration of vehicle or PCP (5mg/kg). Ten minutes following PCP administration, the mice were placed into Hamilton-Kinder startle chambers and evaluation of pre-pulse inhibition procedure was performed. Following a five-minute acclimatization period with background white noise (65db), mice were exposed to five different trial types. Trials were presented […] in a quasi-random order, with randomized 5 to 25 second inter-trial intervals. Trials were: stimulus only trial (120db white noise, 50ms stimulus); two different prepulse+pulse trials in which a 20ms 5db; or 10db stimuli above a 65db background preceded the 120db pulse by 120ms; a 10dbprepulse without a 120db pulse; and a no stimulus trial, in which only the background noise was presented. Table 2 PCP Pre-pulse Inhibition
# Caco-2 cells [2] = tested on: Caco-2 cells
# [3] = sc, read-out: Conditioned Avoidance Responding, Latency ED50
# [4] = sc, read-out: Conditioned Avoidance Responding, avoidance ED50
# [5] = sc, read-out: PCP Disruption of Pre-pulse Inhibition - SC, 5pp ED50
# [6] = sc, read-out: PCP Disruption of Pre-pulse Inhibition - SC, 10pp ED50
# [7] = mice, SC 20 minutes before the test session
# [8] = mice, SC 20 minutes before the test session, read-out: Conditioned Avoidance Responding, Latency ED50
# [9] = read-out: PCP Disruption of Pre-pulse Inhibition, 10pp ED50
# [10] = mice, SC 20 minutes before the test session, read-out: Conditioned Avoidance Responding, avoidance ED50
Papp AP- to- BL (Caco-2 cells [2]; human) [cm/s x 10^6],SMILES,"EFFLUX LIMITED (Caco-2 cells [1]; Caco-2, Yes/No judgement)",RATIO Papp^B-A/ Papp^A-B (Caco-2 cells [1]),Papp AP- to- BL (Caco-2 cells [1]) [cm/s x 10^6],Papp BL- to- AP (Caco-2 cells [1]) [cm/s x 10^6],ED50 (mice; [3]) [mg/kg],ED50 (mice; [4]) [mg/kg],ED50 (male C-57 mice; [5]) [mg/kg],ED50 (male C-57 mice; [6]) [mg/kg],"Conditioned Avoidance Responding, overall effect (mice; [7])","PCP Disruption of Pre-pulse Inhibition, reversal (male C-57 mice)",EFFLUX LIMITED (Caco-2 cells [2]),PERMEABILITY (Caco-2 cells [2]),ED50 (mice; [8]) [mg/kg],"Conditioned Avoidance Responding, effect on escape or avoidance (mice; [7])","Conditioned Avoidance Responding, effect on latency (mice; [7])",ED50 (male C-57 mice; [9]) [mg/kg],ED50 (mice; [10]) [mg/kg],"Conditioned Avoidance Responding, effect on avoidance (mice; [7])","ED50 (male C-57 mice; read-out: PCP Disruption of Pre-pulse Inhibition, 5pp ED50) [mg/kg]"
,"CN1CCN(C2=Nc3cc(Cl)ccc3Nc3ccccc32)CC1 [Clozapine, clozapine, reference compound]",No,0.65,15.3±0.7,7.4±1.1,3.03,6.3,2.87,3,,,,,,,,,,,
,"O=C1CCCc2c1ccn2CCCN1CCN(c2cccc(C(F)(F)F)c2)CC1 [NEO-356, 1-{3-[4-(3-Trifluoromethylphenyl)piperazin-1-yl]propyl}-1,5,6,7-tetrahydroindol-4-one]",,0.41,21.5±2.9,8.8±0.3,,,2.31,,No effect,No reversal,No,High,,,,,,,
,"O=C1CCCc2c1ccn2CCN1CCN(c2cccc(C(F)(F)F)c2)CC1 [NEO-359, 1-{2-[4-(3-Trifluoromethylphenyl)piperazine-1-yl]ethyl}-1,5,6,7-tetrahydroindol-4-one]",,0.32,24.0±3.9,7.6±0.5,,,3.58,0.79,,No reversal,No,High,100,No effect on escape or avoidance,Significant decrease in latency,,,,
,"O=C1CCCc2c1ccn2CCCN1CCN(c2cccc(Cl)c2)CC1 [NEO-363, 1-{3-[4-(3-Chlorophenyl)piperazine-1-yl]propyl}-1,5,6,7-tetrahydroindol-4-one]",,0.75,18.0±0.7,13.1±1.1,,,2.3,2.3,No effect,,No,High,,,,3.1,,,
,"COc1ccccc1N1CCN(CCCn2ccc3c2CCCC3=O)CC1 [NEO-370, 1-{3-[4-(2-Methoxyphenyl)piperazine-1-yl]propyl}-1,5,6,7-tetrahydroindol-4-one]",,0.67,32.1±8.1,20.0±3.4,,,0.79,0.79,,,No,High,3.25,,Significant increase in latency,0.96,6.2,Significant reduction in avoidance,0.96
,"O=C1CCCc2c1ccn2CCN1CCN(c2cccc(Cl)c2)CC1 [NEO-376, 1-{2-[4-(3-Chloro-phenyl)-piperazin-1-yl]-ethyl}-1,5,6,7-tetrahydro-indol-4-one]",,0.43,20.4±1.8,9.4±0.3,,,0.79,0.79,,,No,High,17.5,No effect on escape or avoidance,significant increase in latency,0.79,,,
,"COc1ccccc1N1CCN(CCn2ccc3c2CCCC3=O)CC1 [NEO-377, 1-{2-[4-(2-Methoxyphenyl)-piperazin-1-yl]-ethyl}-1,5,6,7-tetrahydro-indol-4-one]",,0.60,26.0±1.8,15.5±2.9,,,2.31,1.12,,,No,High,3,,Significant increase in latency,2.3,7.57,Significant reduction in avoidance,
,"O=C1CCCc2c1ccn2CCCN1CCN(c2ncccn2)CC1 [NEO-381, 1-{3-[4-(2-Pyrimidyl)piperazine-1-yl]propyl}-1,5,6,7-tetrahydroindol-4-one]",,0.77,32.9±9.6,25.3±0.7,,,0.79,3.58,No effect,No reversal,No,High,,,,,,,
,"O=C1CCCc2c1ccn2CCCCN1CCN(c2cccc(C(F)(F)F)c2)CC1 [NEO-392, 1-{4-[4-(3-Trifluoromethylphenyl)piperazin-1-yl]-butyl}-1,5,6,7-tetrahydroindol-4-one]",,0.58,27.1±1.1,15.7±1.3,,,0.23,0.23,,,No,High,3.25,,Significant increase in latency,1.12,4.93,Significant reduction in avoidance,
17.3±2.3,"CC(C)NCC(O)COc1cccc2ccccc12 (stereo not drawn) [Propranolol, reference compound]",,,,,,,,,,,No,High,,,,,,,
,"Cc1nc2n(c(=O)c1CCN1CCC(c3noc4cc(F)ccc34)CC1)CCCC2 [Risperidone, risperidone, reference compound]",,,,,0.26,0.19,0.036,0.036,,,,,,,Significant increase in latency,,,Significant reduction in avoidance,
